Measured values: patent US10344048B2, “Certain chemical entities, compositions, and methods” (priority 2011, dated 2019)
Like-named read-outs stand apart in the source and are kept apart here.

System: A549 cells
Assay: Inhibition of cell growth in tumor cells, MTT assay
Format: cell-based
Conditions: Homo sapiens, read-out: A549 cell IC50
Protocol: Inhibition of cell growth by compounds was measured using MTT assay (Mosmann, T., Journal of Immunological Methods, 1983, 65, 55-63). Tumor cell lines were purchased from ATCC (American Type Culture Collection, Manassas, Va.). All cell lines were maintained in RPMI 1640 (Hyclone) supplemented with 10% fetal bovine serum (FBS, Hyclone), glutamine (2 mM, Hyclone), and antibiotics (penicillin 100 U/mL and streptomycin 50 μg/mL) at 37° C. in a humidified atmosphere of 5% CO2 in air. Taxol (positive control, Sigma) and compounds were dissolved in DMSO (Sigma), and the final concentration of DMSO in the medium was 1%. Tumor cells were plated in 96-well plates at densities from 4000 cells/well of a 96-well plate and allowed to adhere/grow for 24 h. They were then treated with various concentrations of drug for 72 h. […] The number of cells remaining after 72 h was compared to the number of viable cells at the time of compound addition by measuring the absorbance at 570 nm, allowing for the calculation of growth inhibition.
All concentrations of compounds were tested in triplicate and controls were averaged over 4 wells. IC50 was calculated by plotting the concentration of compound vs the percentage of inhibition in treated wells using GraphPad Prism 5. […]

Structure (SMILES): CC(=O)O[C@H]1C[C@]2(O)[C@@H]3CC[C@@H]4C[C@@H](OC(=O)N5CCNCC5)CC[C@]4(C)[C@H]3CC[C@]2(C)[C@H]1c1ccc(=O)oc1 [(3S,5R,8R,9S,10S,13R,14S,16S,17R)-16-acetoxy-14-hydroxy-10,13-dimethyl-17-(2-oxo-2H-pyran-5-yl)hexadecahydro-1H-cyclopenta[a]phenanthren-3-yl piperazine-1-carboxylate]
- IC50 (A549, 72 h): 5.6 nM

Structure (SMILES): C[C@]12CC[C@H](OC(=O)N3CCNCC3)C[C@H]1CC[C@@H]1[C@@H]2CC[C@]2(C)[C@@H](C3=CC(=O)OC3)CC[C@]12O [(3S,5R,8R,9S,10S,13R,14S,17R)-14-hydroxy-10,13-dimethyl-17-(5-oxo-2,5-dihydrofuran-3-yl)hexadecahydro-1H-cyclopenta[a]phenanthren-3-yl piperazine-1-carboxylate]
- IC50 (A549 cells, MTT assay, 72 h compound exposure): 39 nM
